Assay results reported in patent US20250043290A1, “RNA SEQUENCES THAT INDUCE FLUORESCENCE OF SMALL MOLECULE FLUOROPHORES, MOLECULAR COMPLEXES, SENSORS, AND METHODS OF USE THEREOF” (CORNELL UNIVERSITY, priority 2021, published 2025).
Numbering of substitutions follows the chain as printed. Read-outs that look alike come from different tables or passages of the source. Marks after values point to notes of the source that are not given here.

Columns and labels:
[1] = data from Song et al., cited from earlier work
[2] = Photophysical properties of fluorophores and RNA-fluorophore complexes (Squash study); type: physicochemical
Protocol: All RNAs used for in vitro studies (except the initial hits from SELEX and the DE2-6 mutants) were purified using 8% denaturing PAGE (7M urea) and eluted in 0.3 M NaOAc (pH 5.2) overnight. The RNA was ethanol precipitated and quantified using absorbance in a NanoDrop 2000 spectrometer. All in vitro RNA properties were measured in 40 mM HEPES-KOH (pH 7.4), 100 mM KCl, 0.5 mM MgCl2 buffer unless specified.
Absorption, excitation, and emission spectra were measured using conditions where the RNA is in excess and the fluorophore is limiting to ensure that no free fluorophore contributes to the absorbance or fluorescence signal (FIGS. 7A-7D).
All quantum yields were determined by comparing each RNA-fluorophore complex with Broccli-DFHBI-1T or Corn-DFHO. All measurements for quantum yield were taken in the presence of excess RNA (10 μM final) compared to the fluorophores (0.2 μM final) to avoid interference from unbound fluorophore. The integral of the emission spectra for each Squash-fluorophore complex was compared with the corresponding integrals for Broccoli or Corn to calculate the quantum yield.

[3] = Fluorescence activation of DFHBI-1T by aptamers in vitro; type: biochemical
Text: FIG. 1A is a schematic illustrating the strategy for evolution of the add A-riboswitch aptamer. Indicated are helices P1-P3, junctional strands (J1/2, J2/3, J3/1), kissing loop (gray lines), and adenine interactions with the aptamer (dotted line) (5′-CUUCAUAUAAUCCUAAUGAUAUGGUUUGGGAGUUUCUACCAAGAGCCUUAAACUCUUGAUUAUGAAG-3′ (SEQ ID NO:36)). The chemical structure of adenine and fluorophores are shown. Three regions (Region 1: 5′-UAU AAU-3′ (SEQ ID NO:37)), Region 2: 5′-AGU UUC UAC C-3′ (SEQ ID NO:38); Region 3: 5′-GAU UAU-3′ SEQ ID NO:39), which include J1/2, J2/3, and J3/1 were randomized in both size and sequence resulting in a sprouts/clips library for SELEX. Each nucleotide in the colored regions was replaced using a combination of random stochastic deletion (designated “N”) and random stochastic insertion (designated “n”). FIG. 1B is schematic showing a three dimensional structure of the add A-riboswitch aptamer highlighting the adenine-binding pocket (PDB 1Y26). The mutagenized regions are shown in the same color as FIG. 1A. Adenine is indicated by the arrow. FIG. 1C is a schematic illustrating the evolution of the add A-riboswitch aptamer into Squash, a DFHBI-1T-binding aptamer. The sprouts/clips library was selected for binding to DFHBI-conjugated agarose resulting in aptamer 9-1. Aptamer 9-1 was subjected to two consecutive rounds of directed evolution generating DE2-6. A pair of mutations was introduced in DE2-6 to strengthen the kissing loop interaction resulting in Squash. FIG. 1D is a graph showing fluorescence activation of DFHBI-1T by different aptamer intermediates that led to Squash. The values inside the bars indicate fold-activation of DFHBI-1T fluorescence by the corresponding aptamer. Data represent mean values±s.d. for n=3 independent experiments. […]
(§1) FIG. 6A is a bar graph showing fluorescence activation of DFHO by Squash and its precursors. Fluorescence was measured with 200 nM dye and 10 μM RNA (ex: 495 nm, em: 562 nm, except for Corn; ex: 505 nm, em: 545 nm). […] FIG. 6B is a bar graph showing fluorescence of initial hits after Round 7 of SELEX. In vitro transcribed RNAs from each hit (1 μM final) were mixed with DFHBI-1T (10 μM final) and the fluorescence was measured (ex: 452 nm, em: 503 nm, except for Broccoli; ex: 472 nm, em: 507 nm). […] FIGS. 6C-6D are bar graphs showing fluorescence measurements of the hits with DFHBI-1T after first (FIG. 6C) and second (FIG. 6D) round of directed evolution, measured as in FIG. 6B. […] FIG. 6E is a bar graph showing fluorescence measurements of hits using DFHO after the second round of directed evolution measured as in FIG. 6A. The fluorescence of the hits were normalized against Corn. […] FIG. 6F is a graph showing normalized fluorescence. […] Fluorescence was measured as in FIG. 6A. […]

[4] = Fluorescence activation of DFHO by aptamers in vitro; type: biochemical
Text: FIG. 2A is a schematic showing the secondary structure of Squash as predicted by mFOLD (Squash: 5′-GGCUACAAGGUGAGCCCAAUAAUACGGUUUGGGUUAGGAUAGGAAGUAGAGCCGUAAACUCUCUAAGCGGUAGUC-3′ (SEQ ID NO:1)). Squash retained the main structural elements of add A-riboswitch aptamer including a 3-way junction and predicted kissing loop interactions (residues at positions 30, 31, 56, and 57, solid gray line). An additional base pair in the kissing loop between loop L2 and L3 (residues at positions 29 and 58, dotted gray line) improved fluorescence activation. […] Shown are the excitation (Ex) and emission (Em) spectra of Squash bound to DFHBI-1T and DFHO (structures shown in inset). Spectra were measured using 20 μM RNA and 2 μM of the indicated fluorogenic dye. […] Fluorescence activation was measured by incubating 200 nM dye and 10 μM RNA. By using a large excess of RNA compared to the fluorophore, it was ensured that the fluorescence observed is from 200 nM RNA-fluorophore complex. Data represent mean values±s.d. for n=3 independent experiments. The values inside the bars indicate fold activation. AU, arbitrary units. FIG. 2D is a graph showing the dissociation constant (Kd) between Squash and DFHO as measured by titration of 50 nM Squash with increasing concentration of DFHO, and fitted using a one-site saturation model. […] FIG. 2E is a bar graph showing the results of an experiment in which Squash-DFHO fluorescence was measured in buffers containing exclusively the indicated cations. […] Similar to the parental add A-riboswitch aptamer (see Lemay et al., “Folding of the Adenine Riboswitch,” Chem. Biol. 13:857-868 (2006), which is hereby incorporated by reference in its entirety), Squash-DFHO has a low magnesium requirement for fluorescence activation. […]
as §1

[5] = Fluorescence activation of DFAME by aptamers in vitro; type: biochemical; conditions: in vitro
Protocol: To test whether Beetroot can activate DFHO, the fluorescence emission spectrum of the Beetroot-DFHO complex was measured. In brief, 20 μM Beetroot and 2 μM DFHO were mixed, and the fluorescence emission of the Beetroot-DFHO complex was measured. […] To test whether Beetroot can activate DFHBI-1T, the fluorescence emission spectrum of the Beetroot-DFHBI-1T complex was measured using the same protocol described in FIG. 32A. […] To test whether Beetroot can activate BI, the fluorescence emission spectrum of the Beetroot-BI complex was measured using the same protocol described in FIG. 32A. […] To test whether Corn can activate DFAME, the fluorescence emission spectrum of the Corn-DFAME complex was measured using the same protocol described in FIG. 32A.
The eluted RNAs were then ethanol precipitated, reverse transcribed, PCR amplified and in vitro transcribed to yield the pool for the next SELEX round. The presence of fluorescent RNA species in each pool was assessed by mixing 20 μM RNA and 10 μM DFAME and measuring fluorescence emission of this solution on a fluorometer in comparison with the fluorophore alone. At this point, RNAs were cloned into bacterial expression plasmids for FACS-based screening.
dsDNA encoding the top-performing RNA sequences from the brightest bacterial colonies was PCR amplified from the purified plasmids. […] The resulting RNA was then purified using Zymo RNA concentrator columns and quantified by absorbance using a Thermo Scientific NanoDrop 2000 spectrophotometer. For absorption, excitation and emission spectra measurements, “excess RNA” conditions and limiting amount of fluorophore was used to ensure that no free fluorophore contributes to the absorbance or fluorescence signal. The RNA concentration used for fluorescence and absorbance measurements was 20 μM and 50 μM, respectively, while the dye concentration was 2 μM and 5 μM, respectively. All in vitro RNA properties were measured in 40 mM HEPES pH 7.4, 100 mM KCl, 5 mM MgCl2 buffer, unless specified.

[6] = 40 mM HEPES-KOH (pH 7.4), 100 mM KCl, 0.5 mM MgCl2

Question: What does the source list for `CN1C(=O)/C(=C/c2cc(F)c(O)c(F)c2)N=C1/C=N/O` [DFHO, 4-(3,5-difluoro-4-hydroxybenzylidene)-1-methyl-5-oxo-4,5-dihydro-1H-imidazole-2-carbaldehyde oxime]?
Answer: Extinction coefficient ([1]; DFHO alone, at 505 nm, pH 7.4 buffer): 19,800 M^−1cm^−1; Emission maximum [1]: 561 nm; Excitation maximum [1]: 473 nm; Fluorescence quantum yield [1]: 0.0006; Brightness (extinction coefficient × quantum yield) ([1]; relative to Corn-DFHO): 0.16; Emission maximum [2, 6]: 561 nm; Excitation maximum [2, 6]: 473 nm; Fluorescence quantum yield ([2]; compared with Broccoli-DFHBI-1T or Corn-DFHO): 0.0006; Extinction coefficient ([2]; free DFHO, at 495 nm): 27,000** M^−1cm^−1; Brightness (extinction coefficient × quantum yield) ([2]; relative to Corn): 0.22

B1: 9-1: initial SELEX hit from sprouts/clips library, SEQ ID NO: 9 (nucleic acid)
chain: GCCUAGGCUUCAAGGUGGCCCAAUGAUAUGGUUUGGGUUAGGAUAGGAAUAAGAGCCUUAAACUCUUCAAAGCGGAAGUCUAGGC
modifications: listed as RNA, chemistry not given here
Question: For B1, which “Fold activation of DFHBI-1T fluorescence” value [3] is on record?
Answer: Its value is about 521 fold.

B2: DE1-2: brightest aptamer of first directed evolution, SEQ ID NO: 10 (nucleic acid)
chain: GCCUAGGCUUCAAGGUGAGCCCAAUAAUAUGGUUUGGGUUAGGAUAGGAAGAAGAGCCUUAAACUCUCUAAGCGGAAGUCUAGGC
modifications: listed as RNA, chemistry not given here
Question: For B2, which “Fold activation of DFHBI-1T fluorescence” value [3] is on record?
Answer: The value was “approximately 790 fold”.

B3: DE2-6: aptamer of second directed evolution, SEQ ID NO: 11 (nucleic acid)
chain: B2 chain with U10A, A52U, A76U
modifications: listed as RNA, chemistry not given here
Question: For B3, which “Fold activation of DFHO fluorescence” value [4] is on record?
Answer: The value was about 492 fold.

Question: And the “Fold activation of DFHBI-1T fluorescence” value [3]?
Answer: Its value is “approximately 949 fold”.

B4: 10-1: RNA aptamer from 10 rounds of SELEX that binds DFAME, SEQ ID NO: 95 (nucleic acid)
chain: GCUUCCGUGCGACAUCAUGCGCGCGACUGCUUCGGCAGAGGUGGGUGGUGUGGAGGAGUAUCUG
modifications: RNA, backbone not given here
Question: With B4 as the molecule, how does the “Fold fluorescence enhancement of DFAME” value [5] read?
Answer: The value was “threefold”.
